Values joined by “and” are separate entries in the source; they are usually repeats but may differ in a detail not shown here. Identical values can stand only once.
What was measured:
Assay type in all cases: in vivo
[1] = system: sunflower, Melody variety; experiment: Sunflower seed soaking, field plots (Example XI); conditions: for % Moist: control 12.53; for Wt at 6% Moist: control 60.74; for Wt. at 6 % Moist: normalized to 6% seed moisture content
Source text: In this preferred embodiment of the present invention, sunflower seeds were selected from the Melody variety and were soaked for three hours in solutions containing 0.05% Tween 20 and BMTA or BMPA, at a concentration of 3 ppm. Another group of seeds of the same variety was soaked in a solution with only in 0.05% Tween 20 added (control). Following soaking, seeds were desiccated to storage moisture contents and BMTA, BMPA and control seeds were sown in three twenty-five foot plots (Reps) each on May 21 (plots were arranged in a randomized block design). On September 16, sunflower heads were harvested, with a harvest of around 20 heads per plot/Rep on average. The heads were hand-threshed to collect seeds. Moisture, count, and weight data was collected on seeds from each head.

‘M-202’ type rice = experiment: Rice seed soaking treatment, 24 hours (Example II); conditions: for Biomass / Height / Tillering: 24 hrs soak, tap water irrigation, vs Set 1 (water)
Experimental: In this preferred embodiment of the present invention, seeds are soaked in prepared bio-regulator solutions for a period of 24 hours. Rice seeds were selected from the same ‘M-202’ type grains as in the previous study. The bio-regulator solutions were prepared using 5 ppm BMPA solution. The solution was drained and seeds planted in starter plastic containers filled with potting soil. After germination and plant growth reaching height of four inches, rice seedlings were transplanted from their greenhouse containers to six-inch diameter plastic containers and placed outdoor. Again, two sets of three pots for the control and test group were used.
These studies were also carried out using an increased amount of BMPA. The amount was increased from 1 ppm to 5 ppm, and the results of the study were similar to the results outlined in the paragraph above.

[2] = system: aphid infestation on cotton Bt plant; experiment: Cotton Bt seed soaking, aphid infestation (Example VII)
Experimental: In this preferred embodiment of the present invention, seeds were soaked for a period of 3 hours in the bio-regulator solution. Cotton Bt were selected and studied to determine if bio-regulator chemistry will enhance or influence the inserted Bt genes of the transgenic plant. The seeds were separated into two different sets on July 2. The first set, Set 1, was soaked in 5 ppm BMPA solution with 0.05% Kinetic®. The second set, Set 2, was soaked in water with 0.05% v/v Kinetic®. The solution was drained and the treated seeds planted in starter plastic trays. After germination and after the seedlings reached the height of four inches, the cotton Bt plants were transplanted into larger six-inch plastic containers. The cotton plants were placed outdoors for the duration of the study. The different sets of plants were regularly observed throughout this study.

geranium slips = experiment: Treatment of geranium slips (Example III)
Experimental: In this preferred embodiment of the present invention, according to common geranium cutting means, geraniums were slipped into 18 slips of similar length. In this example the slips had no flower buds. The slips were separated into four different sets: three slips each in three of the sets, and then nine slips in the final set. The slips are then treated with bio-regulator solutions formed from compositions from the different groups and water. In the first set, the slips were treated with BMVE solution; in the second set, the slips were treated with BMTA solution; in the third set, the slips were treated with BMIA in bromide solution; and, in the fourth set, the nine slips were treated with water.
The treatment with bio-regulator solution preferably occurs in the initial planting of the geranium slips, but can also occur at any time from the forming of the geranium slips up to and including the transplanting of the slips. The treatment can occur after transplanting, but this is not the preferred method. […]
The study associated with this embodiment is summarized in Table 3-A below, where Set 1 is the control group and Set 2 is the test group. […] The ratios for Table 3-C are calculated by totaling the heights grown by each slip in each set and comparing it to the control counterpart that was grown in similar environmental conditions, without the treatment of the bio-regulator solutions. […]

[3] = system: ‘M-202’ medium-grain rice (Oryza sativa L.); experiment: Rice seed soaking treatment with NaCl irrigation (Example I)
Experimental: In another preferred embodiment of the present invention, seeds are soaked in prepared bio-regulator solutions for a period of three hours. Rice seeds were selected from ‘M-202’ medium-grain rice (Oryza sativa L.), (Reg. no 72) PI494105 type grains; this selection was meant to represent a typical California rice seed, and was not meant to be limiting. The bio-regulator solutions are prepared using 5 ppm BMTA solution with 0.05% v/v Kinetic® made by Helena Chemical Company. The solution was drained and the seeds planted in starter plastic containers with potting soil. After germination and having grown to 4 inches in height, the plants were transplanted into 6 inch diameter plastic containers. Two sets of three pots each were set up for this study; one set for the test group and one set for the control group. Both the control and test studies were irrigated with 1500 ppm NaCl solution from time of planting until the study was completed. The purpose of the NaCl irrigation was to determine the effect of the bio-regulator treatment in regards to salt tolerances.

[4] = mean over the three Reps, control 65.47
[5] = mean over the three Reps, control 1062
[6] = mean over the three Reps, control 2676
[7] = per Rep (plot), 3 ppm, three hours soak
[8] = per Rep, estimate based on planting rate of 20,000 seeds/acre
[9] = BMTA soln. 5 ppm, 3 hours seed soak, NaCl soln. irrigation, vs Set 1 (tap water)

**Q.** For `CN(CCOC(=O)COc1ccccc1)Cc1ccccc1` [BMPA], which “% Moist” value ([1]; mean over the three Reps) is on record?
**A.** 13.27%

**Q.** What about the “Wt at 6% Moist” value ([1]; mean over the three Reps) of the same compound?
**A.** 64.29

**Q.** What about the “Fresh Seed Wt.” value [1, 4] of the same compound?
**A.** 69.75 g

**Q.** What about the “Seed Count” value [1, 5] of the same compound?
**A.** 1071

**Q.** And the “Yield @ 20,000 Plants/Acre” value [1, 6]?
**A.** 2832 lbs

**Q.** What about the “% Moist (seed moisture content)” value [1, 7] of the same compound?
**A.** 13.52% and 13.93% and 12.37%

**Q.** And the “Fresh Seed Wt.” value [1, 7]?
**A.** 78.24 gm and 65.01 gm and 65.99 gm

**Q.** And the “Seed Count” value [1, 7]?
**A.** 1185 and 977 and 1052

**Q.** What about the “Yield @ 20,000 Plants/Acre” value [1, 8] of the same compound?
**A.** 3171 lbs and 2617 lbs and 2708 lbs

**Q.** And the “Wt. at 6 % Moist” value ([1]; per Rep)?
**A.** 71.99 and 59.42 and 61.46

**Q.** And the “Observed growth from planting through completion of the study” value (‘M-202’ type rice; 5 ppm BMPA, 24 hours soak)?
**A.** enhanced growth

**Q.** What about the Biomass (‘M-202’ type rice; BMPA 1 ppm) of the same compound?
**A.** ~4 x Set 1

**Q.** What about the Height (‘M-202’ type rice; BMPA 1 ppm) of the same compound?
**A.** ~1.2 x Set 1

**Q.** What about the Tillering (‘M-202’ type rice; BMPA 1 ppm) of the same compound?
**A.** ~4 x Set 1

**Q.** What about the Biomass (‘M-202’ type rice; BMPA 5 ppm) of the same compound?
**A.** ~4 x Set 1

**Q.** And the Height (‘M-202’ type rice; BMPA 5 ppm)?
**A.** ~1.2 x Set 1

**Q.** What about the Tillering (‘M-202’ type rice; BMPA 5 ppm) of the same compound?
**A.** ~4 x Set 1

**Q.** What about the “Delay of the infestation of aphids on the cotton Bt plant” value ([2]; 5 ppm BMPA seed soak vs untreated) of the same compound?
**A.** ≤ 19 days

**Q.** What about the “Aphid infestation, Treated” value ([2]; 47 days after planting, 5 ppm BMPA, 3 hrs seed soak, control L-Aphid) of the same compound?
**A.** No Aphid

**Q.** And the “Aphid infestation, Treated” value ([2]; 55 days after planting, control H-Aphid)?
**A.** No Aphid

**Q.** And the “Aphid infestation, Treated” value ([2]; 57 days after planting, control H-Aphid)?
**A.** L-Aphid

**Q.** And the “Aphid infestation, Treated” value ([2]; 74 days after planting, control Stressed)?
**A.** M-Aphid

**Q.** With `Cc1ccc(C(=O)OCCN(C)Cc2ccccc2)cc1` [BMTA] as the compound, how does the “% of Control” value (geranium slips; Day 11, total height vs water control slips) read?
**A.** 186.49%

**Q.** And the “% of Control” value (geranium slips; Day 27, total height vs water control slips)?
**A.** 162.26%

**Q.** And the “% Moist” value ([1]; mean over the three Reps)?
**A.** 13.64%

**Q.** What about the “Wt at 6% Moist” value ([1]; mean over the three Reps) of the same compound?
**A.** 65.08

**Q.** And the “Fresh Seed Wt.” value [1, 4]?
**A.** 70.85 g

**Q.** And the “Seed Count” value [1, 5]?
**A.** 1108

**Q.** What about the “Yield @ 20,000 Plants/Acre” value [1, 6] of the same compound?
**A.** 2867 lbs

**Q.** What about the “% Moist (seed moisture content)” value [1, 7] of the same compound?
**A.** 13.10% and 13.01% and 14.82%

**Q.** What about the “Fresh Seed Wt.” value [1, 7] of the same compound?
**A.** 77.35 gm and 73.58 gm and 61.64 gm

**Q.** And the “Seed Count” value [1, 7]?
**A.** 1226 and 1157 and 942

**Q.** What about the “Yield @ 20,000 Plants/Acre” value [1, 8] of the same compound?
**A.** 3147 lbs and 2989 lbs and 2464 lbs

**Q.** And the “Wt. at 6 % Moist” value ([1]; per Rep)?
**A.** 71.43 and 67.86 and 55.94

**Q.** And the “Observed growth from planting through completion of the study” value ([3]; 5 ppm BMTA, 1500 ppm NaCl irrigation)?
**A.** enhanced growth

**Q.** What about the Biomass [3, 9] of the same compound?
**A.** ~3 x Set 1

**Q.** What about the Height [3, 9] of the same compound?
**A.** Same

**Q.** And the Tillering [3, 9]?
**A.** ~3 x Set 1
